Results taken from ChEMBL document CHEMBL6078613, “Cathepsin B: The dawn of tumor therapy” (Eur J Med Chem, 2024).
pIC50: −log10 of the molar value. Where a SMILES comes first, the peptide text is derived from it. The star is where a group is joined. Cbz = O=C(OCc1ccccc1)*; CH2F = FC*

Tests used:
Cathepsin B [1] = target: T1, Cathepsin B (Homo sapiens, UniProt P07858); experiment: Inhibition of Cathepsin B (unknown origin)
[2] = Inhibition of Cathepsin B-like cysteine protease (unknown origin); parameters: species or system Homo sapiens
Cathepsin B [3] = target: T1, Cathepsin B; experiment: Inhibition of Cathepsin B (unknown origin) at 10 uM relative to control

## COC(=O)CC[C@H](NC(=O)[C@H](Cc1c[nH]c2ccccc12)NC(=O)OCc1ccccc1)C(=O)N[C@@H](Cc1cnc[nH]1)C(=O)N[C@@H](CC(=O)OC)C(=O)CF (Cbz-WE(OMe)HD(OMe)-CH2F)
Cathepsin B [1]
  pIC50: 5.22

## CC(C)C[C@H](NC(=O)[C@H]1O[C@@H]1C(=O)O)C(=O)NCCCCN=C(N)N [E-64]
[2]
  pIC50: 8.05

## CCOC(=O)[C@H]1O[C@@H]1C(=O)N[C@@H](CC(C)C)C(=O)NCCC(C)C
Cathepsin B [3]
  inhibition: 91%
